Source: patent US8975250B2, “5 oxo-5,8-dihydropyrido[2,3-d]pyrimidine derivatives as CaMKII kinase inhibitors for treating cardiovascular diseases” (SANOFI, priority 2010, dated 2015)
Where a name gives a salt, the structure may show the parent alone.

melting point	Structure (SMILES)
> 260 °C	CCN1CCN(c2cc(F)c(Nc3ncc4c(=O)c(C(N)=O)c(N)n(CC)c4n3)c(OC)c2)CC1 (as salt: HCl) [compound 28, 7-Amino-8-ethyl-2-[4-(4-ethylpiperazin-1-yl)-2-fluoro-6-methoxyphenylamino]-5-oxo-5,8-dihydropyrido[2,3-d]pyrimidine-6-carboxamide]
250 °C	NCCCn1c(N)c(C(N)=O)c(=O)c2cnc(Nc3ccc(N4CCOCC4)cc3)nc21 (as salt: HCl) [compound 81, 7-Amino-8-(3-aminopropyl)-2-(4-morpholin-4-ylphenylamino)-5-oxo-5,8-dihydropyrido[2,3-d]pyrimidine-6-carboxamide]
195 °C	CCn1c(N)c(C(N)=O)c(=O)c2cnc(Nc3cccc(N4CCOCC4)c3)nc21 [compound 17, 7-Amino-8-ethyl-2-(3-morpholin-4-ylphenylamino)-5-oxo-5,8-dihydropyrido[2,3-d]pyrimidine-6-carboxamide]
208 to 210 °C (dec.)	CCn1c(N)c(C(N)=O)c(=O)c2cnc(Nc3ccc([C@@H]4C[C@H]4N(C)C)cc3)nc21 (racemic) (as salt: HCl) [compound 97, (±)-7-Amino-2-trans-[4-(2-dimethylaminocyclopropyl)phenylamino]-8-ethyl-5-oxo-5,8-dihydropyrido[2,3-d]pyrimidine-6-carboxamide]
170 °C (dec.)	COCCN1CCC(c2ccc(Nc3ncc4c(=O)c(C(N)=O)c(N)n(CC(C)(C)O)c4n3)c(OC)c2)CC1 (as salt: HCl) [compound 133, 7-Amino-8-(2-hydroxy-2-methylpropyl)-2-{2-methoxy-4-[1-(2-methoxyethyl)piperid-4-yl]phenylamino}-5-oxo-5,8-dihydropyrido[2,3-d]pyrimidine-6-carboxamide]
265 °C	NC(=O)c1c(N)n(C2CCCC2)c2nc(Nc3ccc(N4CCOCC4)cc3)ncc2c1=O [compound 8, 7-Amino-8-cyclopentyl-2-(4-morpholin-4-ylphenylamino)-5-oxo-5,8-dihydropyrido[2,3-d]pyrimidine-6-carboxamide]
> 260 °C	COc1cc(C2CCN(CCC(F)(F)F)CC2)ccc1Nc1ncc2c(=O)c(C(N)=O)c(N)n(CC(C)(C)O)c2n1 (as salt: HCl) [compound 130, 7-Amino-8-(2-hydroxy-2-methylpropyl)-2-{2-methoxy-4-[1-(3,3,3-trifluoropropyl)piperid-4-yl]phenylamino}-5-oxo-5,8-dihydropyrido[2,3-d]pyrimidine-6-carboxamide]
289 °C	CCn1c(N)c(C(N)=O)c(=O)c2cnc(Nc3ccc(CCO)cc3)nc21 [compound 55, 7-Amino-8-ethyl-2-[4-(2-hydroxyethyl)phenylamino]-5-oxo-5,8-dihydropyrido[2,3-d]pyrimidine-6-carboxamide]
228 °C (dec.)	COc1cc(C2CCNCC2)ccc1Nc1ncc2c(=O)c(C(N)=O)c(N)n(-c3ccccc3)c2n1 (as salt: HCl) [compound 113, 7-Amino-2-(2-methoxy-4-piperid-4-ylphenylamino)-5-oxo-8-phenyl-5,8-dihydropyrido[2,3-d]pyrimidine-6-carboxamide]
199 °C	CCn1c(N)c(C(N)=O)c(=O)c2cnc(Nc3ccc(C4CCN(CCC(F)(F)F)CC4)cc3OC)nc21 (as salt: HCl) [compound 35, 7-Amino-8-ethyl-2-{2-methoxy-4-[1-(3,3,3-trifluoropropyl)piperid-4-yl]phenylamino}-5-oxo-5,8-dihydropyrido[2,3-d]pyrimidine-6-carboxamide]
216 °C	CCn1c(N)c(C(N)=O)c(=O)c2cnc(Nc3ccc(CCN4CCCCC4)cc3)nc21 (as salt: HCl) [compound 65, 7-Amino-8-ethyl-5-oxo-2-[4-(2-piperid-1-ylethyl)phenylamino]-5,8-dihydropyrido[2,3-d]pyrimidine-6-carboxamide]
222 °C (dec.)	CCN1CCN(c2ccc(Nc3ncc4c(=O)c(C(N)=O)c(N)n(CC(C)(C)O)c4n3)c(OC)c2)CC1 (as salt: HCl) [compound 129, 7-Amino-2-[4-(4-ethylpiperazin-1-yl)-2-methoxyphenylamino]-8-(2-hydroxy-2-methylpropyl)-5-oxo-5,8-dihydropyrido[2,3-d]pyrimidine-6-carboxamide]
256 °C (dec.)	COc1cc(C2CCN(C)CC2)ccc1Nc1ncc2c(=O)c(C(N)=O)c(N)n(-c3ccccc3)c2n1 (as salt: HCl) [compound 134, 7-Amino-2-[2-methoxy-4-(1-methylpiperid-4-yl)phenylamino]-5-oxo-8-phenyl-5,8-dihydropyrido[2,3-d]pyrimidine-6-carboxamide]
> 260 °C	CCn1c(N)c(C(N)=O)c(=O)c2cnc(Nc3ccc(O)cc3)nc21 [compound 1, 7-Amino-8-ethyl-2-(4-hydroxyphenylamino)-5-oxo-5,8-dihydropyrido[2,3-d]pyrimidine-6-carboxamide]
226 to 228 °C	CCn1c(N)c(C(N)=O)c(=O)c2cnc(Nc3ccc(C4CCN(C5CC5)CC4)cc3OC)nc21 (as salt: HCl) [compound 29, 7-Amino-2-[4-(1-cyclopropylpiperid-4-yl)-2-methoxyphenylamino]-8-ethyl-5-oxo-5,8-dihydropyrido[2,3-d]pyrimidine-6-carboxamide]
204 to 206 °C	CCn1c(N)c(C(N)=O)c(=O)c2cnc(Nc3ccc(N4CCN(C5CC5)CC4)cc3OC(F)F)nc21 (as salt: HCl) [compound 33, 7-Amino-2-[4-(4-cyclopropylpiperazin-1-yl)-2-difluoromethoxyphenylamino]-8-ethyl-5-oxo-5,8-dihydropyrido[2,3-d]pyrimidine-6-carboxamide]
